Consider one molecule from publication PMC12334614, “Chidamide and cytarabine synergistically treat acute myeloid leukemia: inhibiting ribosome biogenesis via the MYC-RRP9 pathway” (Cell Death & Disease, 2025).

One assay deals with T1, MYC (Homo sapiens, UniProt P01106, A416G/K413A/P406A/V409A).
T1 construct: recombinant MYC protein carrying the predicted substitutions (MedChemExpress HY-P7S1056)
As to the kind of experiment: SPR (Biacore X100, steady-state affinity). The assay is classed as binding. On the technique in general: Surface plasmon resonance follows binding to a sensor surface in real time, without labels.

A further assay concerns the target T2, c-MYC (Homo sapiens, UniProt P01106).
T2 construct: recombinant c-MYC protein (RayBiotech) immobilized on CM5 chip
As to the kind of experiment: SPR (Biacore X100, steady-state affinity). It counts as binding.

T2 sequence (P01106 16-454): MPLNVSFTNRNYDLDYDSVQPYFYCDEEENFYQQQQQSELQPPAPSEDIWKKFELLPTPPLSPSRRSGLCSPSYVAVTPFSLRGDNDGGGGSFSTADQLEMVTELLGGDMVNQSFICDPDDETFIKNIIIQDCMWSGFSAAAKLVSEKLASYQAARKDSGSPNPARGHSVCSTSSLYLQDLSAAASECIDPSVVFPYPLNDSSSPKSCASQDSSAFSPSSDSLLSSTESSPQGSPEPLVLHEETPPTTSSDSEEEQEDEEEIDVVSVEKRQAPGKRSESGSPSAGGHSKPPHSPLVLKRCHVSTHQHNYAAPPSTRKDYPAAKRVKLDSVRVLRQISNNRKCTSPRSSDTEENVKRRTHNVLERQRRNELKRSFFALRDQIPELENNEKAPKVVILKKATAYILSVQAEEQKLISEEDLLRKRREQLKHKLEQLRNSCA
T1 sequence (P01106 16-454 P406A/V409A/K413A/A416G): as the sequence (P01106 16-454) above, with P391A, V394A, K398A, A401G counted along it

With `Nc1cc(F)ccc1NC(=O)c1ccc(CNC(=O)/C=C/c2cccnc2)cc1` [chidamide], the Kd on MYC was 3.12 µM; on c-MYC it was 0.795 µM.

One may read the Kd as the equilibrium constant for the complex coming apart.
